# Data as given in ChEMBL document CHEMBL1201862, “PubChem BioAssay data set” (2004).
# Active and inactive are the calls of the source.
# Assays:
# [1] = Shn3 3'UTR reporter inhibitors, dose response, cell-based, Clone20 osteoblasts, firefly luciferase, cherry-picked (AID 624132); assay type: functional;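 also: firefly luciferase luminescence from reporter carrying the Shn3 3'UTR in osteoblasts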
# [2] = HepG2 cell cytotoxicity, dose response, cytotoxicity control for Shn3 inhibitor project, CellTiter-Glo, cherry-picked (AID 624134); assay type: functional, cell-based
# [3] = control 3'UTR Renilla luciferase suppression, dose response, counter-screen for Shn3 inhibitor project, cell-based, Clone20-Shn3RL, cherry-picked (AID 624133); assay type: functional
# Protein Wnt-3a = Protein Wnt-3a (Mus musculus, UniProt P27467); experiment: Wnt3a-driven reporter signaling inhibition, dose response, selectivity assay for Gli-SUFU antagonist project, Wnt-LIGHT cells, luminescence (AID 651570); assay type: functional; settings: read-out: IC50_Mean;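 also: Wnt-LIGHT reporter cells stimulated with conditioned medium from Wnt3a-producing cells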
# INS1 = experiment: beta cell apoptosis inhibitors, cytokine rescue, dose response, luminescence, retest (AID 449756); assay type: functional, cell-based; settings: Rattus norvegicus;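 also: cell death triggered by IL-1 beta plus TNF-alpha plus IFN-gamma mixture; protective hits raise ATP signal compared with cytokine alone wells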
# [4] = molecular target: T1, Endoribonuclease toxin MazF (Escherichia coli K-12, UniProt P0AE70); experiment: MazF toxin RNase activators, dose response, biochemical, fluorescence, single-stranded RNA substrate, uHTS hits (AID 588481); assay type: functional
# T1 sequence (P0AE70 whole entry): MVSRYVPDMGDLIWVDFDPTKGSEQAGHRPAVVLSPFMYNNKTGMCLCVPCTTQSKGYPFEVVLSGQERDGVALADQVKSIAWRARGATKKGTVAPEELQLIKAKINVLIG
# [5] = molecular target: T1, Endoribonuclease toxin MazF; experiment: fluorescent RNA oligo signal without MazF, dose response, counter-screen for MazEF activator project, biochemical, fluorescence, single-stranded RNase substrate (AID 588502); assay type: functional
# Melanocortin receptor 4 = Melanocortin receptor 4 (Homo sapiens, UniProt P32245); assay type: functional, cell-based;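 also: Cell-based assay with luminescence read-out, confirmatory dose-response testing for agonist activity of biased ligands at MC4R; human U2OS cells with tagged receptor and beta-arrestin; potency of agonists that increase receptor coupling to beta-arrestin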
# HEK293 = experiment: inhibitors of LMP1-driven NF-kB reporter, dose response, cell-based, HEK293, luciferase, cherry-pick (AID 588343); assay type: functional; settings: Homo sapiens
# [6] = molecular target: T2, Carboxy-terminal domain RNA polymerase II polypeptide A small phosphatase 1 (Homo sapiens, UniProt Q9GZU7); experiment: inhibitors of CTDSP1, concentration-response testing, biochemical assay, absorbance-based, actives from ultra-high-throughput screening (AID 540297); assay type: functional
# T2 sequence (Q9GZU7 whole entry): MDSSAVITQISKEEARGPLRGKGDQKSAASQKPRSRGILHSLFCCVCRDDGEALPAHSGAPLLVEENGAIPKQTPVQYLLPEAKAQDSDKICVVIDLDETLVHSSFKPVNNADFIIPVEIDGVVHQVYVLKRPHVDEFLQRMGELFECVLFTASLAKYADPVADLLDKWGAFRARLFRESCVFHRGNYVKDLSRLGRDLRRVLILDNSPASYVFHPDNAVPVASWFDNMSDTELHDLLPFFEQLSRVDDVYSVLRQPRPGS
# Cytochrome P450 2D6 = Cytochrome P450 2D6 (Homo sapiens, UniProt P10635);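 also: CYP2D6 member of a cytochrome P450 panel assay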
# Cytochrome P450 3A4 = Cytochrome P450 3A4 (Homo sapiens, UniProt P08684);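 also: CYP3A4 tested as one member of a cytochrome P450 panel screen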
# [7] = molecular target: Dual specificity tyrosine-phosphorylation-regulated kinase 1A (Rattus norvegicus, UniProt Q63470); assay type: biochemical, Homo sapiens
# [8] = molecular target: T3, Replicative DNA helicase DnaB (Mycobacterium tuberculosis, UniProt P9WMR3); experiment: DnaB intein splicing inhibitors, dose response, biochemical, cell-free fluorescence (AID 449749); assay type: functional
# T3 sequence (P9WMR3 whole entry): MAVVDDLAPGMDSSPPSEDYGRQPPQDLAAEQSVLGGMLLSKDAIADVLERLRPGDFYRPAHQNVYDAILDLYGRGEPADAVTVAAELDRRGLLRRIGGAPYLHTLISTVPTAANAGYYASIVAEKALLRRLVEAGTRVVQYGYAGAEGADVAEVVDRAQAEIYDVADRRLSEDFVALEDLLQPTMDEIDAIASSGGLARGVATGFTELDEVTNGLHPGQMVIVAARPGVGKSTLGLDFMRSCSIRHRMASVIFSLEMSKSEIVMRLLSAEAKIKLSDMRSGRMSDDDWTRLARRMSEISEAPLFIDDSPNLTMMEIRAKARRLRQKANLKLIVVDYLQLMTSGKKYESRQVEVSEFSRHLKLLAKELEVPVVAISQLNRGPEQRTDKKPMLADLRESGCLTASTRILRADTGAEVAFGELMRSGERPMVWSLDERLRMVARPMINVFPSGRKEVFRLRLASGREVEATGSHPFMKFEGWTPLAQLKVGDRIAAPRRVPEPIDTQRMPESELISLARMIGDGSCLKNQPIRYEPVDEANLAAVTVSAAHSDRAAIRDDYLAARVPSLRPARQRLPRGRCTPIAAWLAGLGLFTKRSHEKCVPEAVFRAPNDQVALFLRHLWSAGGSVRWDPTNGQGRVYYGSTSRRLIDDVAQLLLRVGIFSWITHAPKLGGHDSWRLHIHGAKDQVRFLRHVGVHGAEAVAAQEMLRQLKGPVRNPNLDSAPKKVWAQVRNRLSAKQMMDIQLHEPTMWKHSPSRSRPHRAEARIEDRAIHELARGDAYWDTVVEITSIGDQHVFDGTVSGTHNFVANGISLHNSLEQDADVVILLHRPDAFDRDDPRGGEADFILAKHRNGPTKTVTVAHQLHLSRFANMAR
# Protein RecA = molecular target: T4, Protein RecA (Mycobacterium tuberculosis, UniProt P9WHJ3); experiment: Fluorescence Cell-Free Homogeneous Dose Retest to Identify Inhibitors of RecA-Intein Splicing Activity. [Related pubchem assays (depositor defined):AID2097, AID2223, AID489010, AID492950]; assay type: functional
# T4 sequence (P9WHJ3 whole entry): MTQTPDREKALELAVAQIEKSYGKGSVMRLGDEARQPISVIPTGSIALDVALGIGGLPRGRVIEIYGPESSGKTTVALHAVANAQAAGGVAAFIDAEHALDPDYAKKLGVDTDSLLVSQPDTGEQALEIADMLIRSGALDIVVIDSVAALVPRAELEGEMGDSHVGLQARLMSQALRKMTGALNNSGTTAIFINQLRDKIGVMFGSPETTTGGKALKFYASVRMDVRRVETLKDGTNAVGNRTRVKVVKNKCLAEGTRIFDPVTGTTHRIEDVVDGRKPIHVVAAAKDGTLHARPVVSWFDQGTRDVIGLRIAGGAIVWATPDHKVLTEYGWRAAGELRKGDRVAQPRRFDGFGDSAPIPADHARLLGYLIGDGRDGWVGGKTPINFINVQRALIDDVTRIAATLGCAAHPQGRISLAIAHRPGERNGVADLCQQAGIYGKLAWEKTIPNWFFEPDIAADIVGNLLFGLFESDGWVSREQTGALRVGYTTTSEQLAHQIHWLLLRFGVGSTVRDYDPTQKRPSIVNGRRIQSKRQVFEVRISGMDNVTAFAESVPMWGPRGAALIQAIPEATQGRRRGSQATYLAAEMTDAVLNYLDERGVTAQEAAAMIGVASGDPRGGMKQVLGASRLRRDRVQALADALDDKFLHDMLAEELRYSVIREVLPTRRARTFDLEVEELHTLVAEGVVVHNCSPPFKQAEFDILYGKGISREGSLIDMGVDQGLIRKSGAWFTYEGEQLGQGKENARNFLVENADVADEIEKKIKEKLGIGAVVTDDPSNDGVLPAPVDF
# Escherichia coli = experiment: microbe, parasite or virus in culture
# Chain of Protein Wnt-3a (P27467 whole entry): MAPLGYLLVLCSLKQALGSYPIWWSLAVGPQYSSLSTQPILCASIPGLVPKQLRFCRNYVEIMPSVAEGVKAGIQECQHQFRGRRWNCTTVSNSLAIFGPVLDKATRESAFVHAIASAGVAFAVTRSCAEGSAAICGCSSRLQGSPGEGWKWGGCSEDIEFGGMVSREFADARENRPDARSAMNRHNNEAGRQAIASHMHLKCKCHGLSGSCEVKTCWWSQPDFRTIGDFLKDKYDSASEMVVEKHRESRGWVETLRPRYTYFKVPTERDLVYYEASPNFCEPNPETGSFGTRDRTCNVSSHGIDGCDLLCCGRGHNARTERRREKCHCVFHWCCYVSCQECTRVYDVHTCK
# Chain of Melanocortin receptor 4 (P32245 whole entry): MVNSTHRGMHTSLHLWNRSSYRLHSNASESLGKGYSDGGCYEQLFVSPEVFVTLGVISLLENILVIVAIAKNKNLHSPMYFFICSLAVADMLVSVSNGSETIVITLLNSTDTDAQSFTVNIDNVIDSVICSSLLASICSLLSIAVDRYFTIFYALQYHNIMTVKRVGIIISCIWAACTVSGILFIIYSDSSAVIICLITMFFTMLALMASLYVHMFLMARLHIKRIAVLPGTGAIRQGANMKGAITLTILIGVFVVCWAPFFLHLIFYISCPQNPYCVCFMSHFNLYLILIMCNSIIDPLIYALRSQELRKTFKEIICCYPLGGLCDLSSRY
# Chain of Cytochrome P450 2D6 (P10635 whole entry): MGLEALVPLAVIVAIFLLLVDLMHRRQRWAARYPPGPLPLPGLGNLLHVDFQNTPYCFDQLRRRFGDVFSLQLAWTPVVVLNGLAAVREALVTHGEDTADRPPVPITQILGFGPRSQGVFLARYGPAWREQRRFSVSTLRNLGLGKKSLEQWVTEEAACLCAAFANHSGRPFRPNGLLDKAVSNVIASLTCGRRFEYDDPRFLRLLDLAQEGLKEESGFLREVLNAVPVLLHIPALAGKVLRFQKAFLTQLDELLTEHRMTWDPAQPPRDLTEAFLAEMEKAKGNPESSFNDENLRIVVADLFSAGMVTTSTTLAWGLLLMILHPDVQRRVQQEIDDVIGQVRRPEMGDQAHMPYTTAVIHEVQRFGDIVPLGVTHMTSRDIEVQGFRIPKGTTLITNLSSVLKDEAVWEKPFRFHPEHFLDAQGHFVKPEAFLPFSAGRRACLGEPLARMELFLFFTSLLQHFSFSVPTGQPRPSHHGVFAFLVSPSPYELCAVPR
# Chain of Cytochrome P450 3A4 (P08684 whole entry): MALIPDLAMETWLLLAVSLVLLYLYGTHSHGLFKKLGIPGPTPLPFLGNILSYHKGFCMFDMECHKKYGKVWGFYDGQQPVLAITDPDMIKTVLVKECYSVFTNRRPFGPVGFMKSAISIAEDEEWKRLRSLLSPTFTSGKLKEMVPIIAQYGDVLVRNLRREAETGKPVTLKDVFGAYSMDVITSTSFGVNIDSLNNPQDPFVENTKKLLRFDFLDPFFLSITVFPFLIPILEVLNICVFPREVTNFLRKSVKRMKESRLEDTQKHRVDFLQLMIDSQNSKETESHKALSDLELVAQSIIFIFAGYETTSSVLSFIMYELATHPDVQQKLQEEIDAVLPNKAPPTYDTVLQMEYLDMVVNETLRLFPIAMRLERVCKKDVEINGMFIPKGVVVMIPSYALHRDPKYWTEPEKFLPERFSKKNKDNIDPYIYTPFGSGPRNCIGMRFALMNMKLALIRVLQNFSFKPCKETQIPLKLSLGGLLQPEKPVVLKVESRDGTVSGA
smiles,measurement,setting,value
CN(Cc1nccs1)C(=O)c1cc(COc2cccc3cnccc23)on1,AC50,[1],2.77 µM (active)
same,AC50,[2],48.5 µM (active)
same,AC50,[3],1.2 µM (active)
same,IC50,Protein Wnt-3a,1.3 µM (active)
Cc1sc2ncnc(N3CCN(S(=O)(=O)c4ccc(C(C)(C)C)cc4)CC3)c2c1C,AC50,INS1,3.23 µM (active)
same,IC50,Protein Wnt-3a,6.86 µM (active)
O=c1oc(/C=C/c2ccco2)nc2sc3c(c12)CCC3,EC50,[4],> 99 µM (inactive)
same,EC50,[5],> 99 µM (inactive)
COc1cccc(-c2cnc3c(NC(C)=O)cc(-c4ccc(C(=O)N5CCOCC5)cc4)cn23)c1,EC50,Melanocortin receptor 4,> 89.2 µM (inactive)
CC1CC(=O)N(c2ccc(NCc3ccc(Cl)cc3)c([N+](=O)[O-])c2)C1=O (configuration not stated),EC50,[4],96.1 µM (inactive)
same,EC50,[5],> 99 µM (inactive)
O=C(C=C1SCCS1)/C=C/c1ccco1,AC50,HEK293,10.8 µM (active)
same,IC50,[6],7.85 µM (active)
same,AC50,Cytochrome P450 2D6,17.8 µM (inconclusive)
same,AC50,Cytochrome P450 3A4,15.8 µM (inconclusive)
O=C(NCc1ccco1)c1sc2ccccc2c1Cl,AC50,[7],7.39 µM (active)
COc1ccccc1-c1c(-c2ccc(O)cc2O)n[nH]c1C(F)(F)F,IC50,Protein Wnt-3a,2.07 µM (active)
CC(=O)c1ccc(-c2cccc(-c3nc4ccccn4c3NC3CCCCC3)c2)cc1,AC50,[8],0.377 µM (active)
same,EC50,Protein RecA,0.178 µM (active)
same,AC50,Escherichia coli,299 µM (active)
O=C1C(Cl)=C(NCCc2ccccc2)C(=O)N1CCc1ccccc1,EC50,[4],> 99 µM (inactive)
same,EC50,[5],> 99 µM (inactive)
